{
  "source": "patent US9102710B2",
  "about": "“Cyclic peptides binding CXCR4 receptor and relative medical and diagnostic uses” (IRCCS-ISTITUTO NAZIONALE PER LO STUDIO E LA CURA DEI TUMORI …, priority 2010, dated 2015)",
  "key": {"[1]": {"conditions": "cited from earlier work"}, "[2]": {"test_system": "phosphorylation of ERK 1,2", "experiment": "p-ERK induction by Immunoblotting in PES43 cells", "assay_type": "cell-based, human", "conditions": "AMD3100 1 uM, SDF-1α 100 ng/ml", "protocol": "CXCL12 activates the phosphorylation of ERK and this phosphorylation is inhibited by both AMD3100 (1 uM), and by the peptides css:[C-WHR-C] (10 uM), css:[C-FFR-C] (10 uM), css:[C-FFR-C]-Nam (10 uM), css:[C-WYR-C]-AR (10 uM), RA-css:[C-RFF-C] (10 uM), RA-css:[C-RHW-C] (10 uM), abb:[β-Ala-WHR-β-Ala] (10 uM).\nThe activation of CXCR4 induces the transduction path of MAPK through the phosphorylation of ERK 1,2. For this reason, the modulation of the induction of P-ERK was evaluated in relation to treatment with SDF-1α (100 ng/ml), peptides (10 uM) and AMD3100 (1 uM).\nThe cells were deprived of serum for 24 hours and then stimulated with SDF-1α.\nThe human melanoma cells, PES43, grown on 100 mm plates, were treated with SDF-1α, for 2-5-7-10 minutes. The cells were then mechanically detached, lysed in a specific buffer to which protease inhibitors and phosphatase inhibitors were added (120 mM NaCl, 40 mM Hepes, 5 mM MgCl2, 1 mM EGTA, 0.5 mM EDTA, 0.6% Triton, 10% glycerol, […], 1 mM Na3VO4, 1 mM NaF). The cell lysates thus obtained (50 μg of total proteins) were first denatured with Laemmli 4× and then separated with SDS-PAGE on gel at 10% in the presence of a running buffer (Tris Base, Glycine, SDS); the proteins were subsequently transferred onto a nitrocellulose membrane in incubated with primary antibodies specific for the following proteins: phospho-ERK 1/2, total ERK. […]"}, "CXCR4 receptor": {"target": "T1, CXCR4 receptor (Homo sapiens, UniProt P61073)", "T1 construct": "a leukaemia T CD4+ cell line with a high expression of the CXCR4 receptor; endogenous in cells; host or cells: CCRF-CEM (printed also CCFR-CEM) leukaemia T CD4+ cells", "T1 sequence (P61073 whole entry)": "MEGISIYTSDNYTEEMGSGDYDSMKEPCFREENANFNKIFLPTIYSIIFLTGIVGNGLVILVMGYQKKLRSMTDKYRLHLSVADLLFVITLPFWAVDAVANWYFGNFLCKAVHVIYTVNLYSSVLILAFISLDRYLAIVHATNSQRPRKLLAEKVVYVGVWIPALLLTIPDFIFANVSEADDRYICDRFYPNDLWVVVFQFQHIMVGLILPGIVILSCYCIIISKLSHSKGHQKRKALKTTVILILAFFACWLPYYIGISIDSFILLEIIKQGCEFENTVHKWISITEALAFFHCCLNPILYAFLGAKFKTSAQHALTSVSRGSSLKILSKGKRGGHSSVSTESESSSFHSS", "experiment": "Cytofluorimetric determination of Ca2+ release in CCFR-CEM cells after stimulation with SDF-1α", "assay_type": "cell-based", "conditions": "compound 10 uM, read-out: reduction (inhibition) of Calcium release induced by SDF-1α", "from_the_text": "For all the subsequent in vitro examples, two cell lines were used: CCFR-CEM and PES 43; the first is a leukaemia T CD4+ cell line with a high expression of the CXCR4 receptor, grown in a RPMI 1640 culture medium enriched with 10% of Fetal Bovine Serum (FBS) inactivated with heat and 1% of L-Glutamine; the second is a cell line deriving from melanoma lung metastasis called PES43 with a high expression of the CXCR4 receptor, grown in Iscove's Modified Dulbecco's Medium (IMDM) supplemented with 10% of Fetal Bovine Serum (FBS) inactivated with heat and 1% of Penicillin-Streptomycin.\nThe determination of the release of intracellular Calcium was effected in CCFR-CEM cells. The cells (500,000 cells) were washed with PBS, resuspended in 1 ml of Loading Buffer (PBS 1×, 1 mM CaCl2, 1 mM MgCl2, 1% FBS inactivated with heat) at 37° C., and incubated with 4 ul of the calcium tracer FLUO3-AM (1 mg/ml; Sigma) and 4 ul of Pluronic Acid F-127 (1 mg/ml in 2% of DMSO; Invitrogen) in the dark for 30′ at 37° C. under stirring. In order to remove the excess FLUO3-AM, 3 ml of Loading Buffer are added, this is followed by a centrifugation for 5′ at 1,000-1,200 rpm. The pellet thus obtained is resuspended in 1 ml of Loading Buffer. […]"}},
  "data": [
    {"smiles": "c1cc(CN2CCCNCCNCCCNCC2)ccc1CN1CCCNCCNCCCNCC1", "note": "[AMD3100, 1,19-[1,4-phenylenebis(methylene)]-bis-1,4,8,11-azatetradecane]", "values": [
      {"measurement": "time of peak of increase in white blood cell series after administration", "setting": "[1]; healthy volunteers, Phase 1", "result": 6, "unit": "h"},
      {"measurement": "bioavailability", "setting": "[1]; previous studies [4]", "result": "poor"},
      {"measurement": "toxicity", "setting": "[1]; previous studies [4]", "result": "hepatic, cardiac and cerebellar toxicity"},
      {"measurement": "inhibition of SDF-1α-activated phosphorylation of ERK", "setting": "[2]", "result": "inhibited"},
      {"measurement": "inhibition at 10 µM", "setting": "CXCR4 receptor", "result": 70, "unit": "%"}
    ]}
  ]
}
